US20150071904A1, “COMPOSITIONS AND METHODS TO BOOST ENDOGENOUS ROS PRODUCTION FROM BACTERIA” (Trustees of Boston University, priority 2012, published 2015)

Key:
[1] = tested on: Escherichia coli MG1655 wildtype cells; test: Carboxin inhibitor experiments (CFU survival, alone and combined with H2O2 or ampicillin; dose response and synergy); assay type: cell-based
Procedure: Strains were grown aerobically from an initial inoculation of OD600=0.01 to OD600=0.16-0.20 in 250 mL baffled flasks filled to 1/10th the total volume and shaken at 300 rpm at 37° C. Time-zero samples were collected (200-400 μL), then 1 mL aliquots were transferred to 14 mL test tubes. Carboxin solubilized in 100% ethanol or ethanol alone was added to the tubes. […] Drug synergism was calculated using the Bliss Independence and Highest Single Agent models^52, 53. Specifically, the formula,
was used to calculate synergism with the Bliss Independence model. A and B are the effects of the two drugs in isolation, whereas, BICAB is the combined effect of the two drugs as predicted by the Bliss Independence model. If CAB, the experimentally-determined combined effect of the two drugs, is >BICAB, synergy is observed. In contrast, in the Highest Single Agent model, if CAB>max(A, B) synergy is observed. Since cell death was monitored, the quantitative effect of each compound was defined as the fractional reduction of the population, R=1−CFUt/CFU0, where CFUt is the number of CFUs measured after treatment, and CFU0 is the number of CFUs measured before treatment. R=1 indicates complete loss of the population, R=0 indicates a population in stasis, and R<0 indicates a growing population. […] The Bliss Independence model can be written as follows,
If A is a compound that reduces CFUs, such as ampicillin, its effect above the MIC will be 0≦A≦1, whereas if B is a compound that allows growth at all concentrations, its effect will be B<0 regardless of the concentration. Rearrangement of the above yields,
Since equation 3 yields BICAB/A<1 for all B<0 and 0<A<1, the Highest Single Agent model requires CAB/A>1 and the Bliss Independence model requires CAB/BICAB>1 for synergy, the Highest Single Agent model will always be a more strict synergy requirement under these conditions. […] Modeling Escherichia coli ROS Metabolism

[2] = cited from earlier work
[3] = tested on: Escherichia coli MG1655 wildtype and single-gene deletion strains; test: Antimicrobial sensitivity assays (CFU time course of deletion strains and wildtype treated with oxidants or antibiotics); assay type: cell-based; details: 500 ng/mL gentamicin, FIG. 6C
Procedure: Escherichia coli MG1655 was used in this study. Genetic deletions of aceA, appB, atpC, cyoA, edd, fumB, fbaB, gdhA, gltB, gnd, mqo, nuoG, pfkB, pta, pykA, rpiB, sdhC, sucC, talB, tktB and zwf were transduced from the Keio single-gene deletion knockout library^63 into MG1655 using the P1 phage method, and confirmed with PCR. The media used for all experiments was M9 minimal media with 10 mM glucose as the sole carbon source or MOPS minimal media with 10 mM glucose (for the HyPer protein experiments).
Strains were grown aerobically from an initial inoculation of OD600=0.01 to OD600=0.16-0.20 in 250 mL baffled flasks filled to 1/10th the total volume and shaken at 300 rpm at 37° C. For menadione, H2O2, and ampicillin sensitivity assays, time-zero samples were collected (200-400 μL), then 1 mL aliquots were transferred to 14 mL test tubes, and appropriate volumes of menadione, H2O2, or ampicillin stock solutions, not in excess of 15 μL, were added to obtain the final concentrations (1 mM menadione, 5 mM H2O2, 7.5 μg/mL ampicillin, 100 ng/mL ofloxacin, 15 ng/mL ciprofloxacin, 500 ng/mL gentamicin, 10 μg/mL tetracycline, and 15 μg/mL chloramphenicol). […] Colony forming units were counted approximately 16-18 hours after plating.

Molecule: CC1(C)S[C@@H]2[C@H](NC(=O)[C@H](N)c3ccccc3)C(=O)N2[C@H]1C(=O)O [ampicillin]
- ampicillin concentrations synergistic with carboxin ([1]; carboxin 250 μM or greater, Bliss Independence and Highest Single Agent models, FIG. 8): 7.5 to 10 µg/mL

Molecule: CC1=C(C(=O)Nc2ccccc2)SCCO1 [carboxin]
- sensitivity of wildtype cells to ampicillin with carboxin compared to ampicillin alone ([1]; 500 μM carboxin + 10 μg/mL ampicillin, FIG. 4F): significantly more sensitive
- sensitivity of wildtype cells to H2O2 with carboxin compared to H2O2 alone ([1]; 500 μM carboxin + 5 mM H2O2, FIG. 4E): increased sensitivity
- effect of carboxin alone on growth of wildtype cells ([1]; carboxin alone, 500 μM, wildtype E. coli, FIGS. 4E, 4F): no effect on the growth
- lethality / growth of E. coli with carboxin ([1]; concentrations as high as 1 mM): non-lethal and allowed significant growth
- suitability as antibiotic adjuvant, human toxicity [2]: not suitable as an antibiotic adjuvant due to human toxicity issues

Molecule: gentamicin
- sensitivity of many target strains compared to wildtype ([3]; many predicted target deletion strains): decreased sensitivity
- sensitivity of ΔatpC strain compared to wildtype ([3]; ΔatpC E. coli): increased sensitivity
